Source: paper PMC9871744 (Cellular and Molecular Gastroenterology and Hepatology, 2022)
Values joined by “and” are separate entries in the source; they are usually repeats but may differ in a detail not shown here. Identical values can stand only once.

Key:
HepG2 cells [1] = assay: Micronucleus analysis
Cytotoxicity evaluation = conditions: human, Cytotoxicity (%)
HepG2 cells [2] = assay: Cytotoxicity evaluation
human fungiform TBC = assay: Ca2+ signaling in human fungiform TBC; format: cell-based
mouse fungiform TBC = assay: Ca2+ signaling in mouse fungiform TBC; format: cell-based; conditions: LA at 20 μmol/L
[3] = test system: chorda tympani (CT) nerve; assay: Chorda tympani; format: in vivo; conditions: lingual application in mice; 1, 2, and 4 mmol/L; normalized to NH4Cl 100 mmol/L
C57Bl/6 male mice [4] = assay: Lingual application: pancreato-bile secretion and release of gut peptides; format: in vivo; conditions: tongue application 100 μmol/L; at 30 and 60 minutes
C57Bl/6 male mice [5] = assay: Two-bottle preference and licking tests; format: in vivo; conditions: 75 μmol/L in 0.3% xanthan gum, 12 hours
C57BL/6J male mice = assay: Diet-induced obesity; format: in vivo
[6] = target: T1, human estrogen receptor alpha (hERα) (Homo sapiens, UniProt P03372); assay: Estrogen receptor transcriptional activation and inhibition assays; format: cell-based
T1 sequence (P03372 1-595): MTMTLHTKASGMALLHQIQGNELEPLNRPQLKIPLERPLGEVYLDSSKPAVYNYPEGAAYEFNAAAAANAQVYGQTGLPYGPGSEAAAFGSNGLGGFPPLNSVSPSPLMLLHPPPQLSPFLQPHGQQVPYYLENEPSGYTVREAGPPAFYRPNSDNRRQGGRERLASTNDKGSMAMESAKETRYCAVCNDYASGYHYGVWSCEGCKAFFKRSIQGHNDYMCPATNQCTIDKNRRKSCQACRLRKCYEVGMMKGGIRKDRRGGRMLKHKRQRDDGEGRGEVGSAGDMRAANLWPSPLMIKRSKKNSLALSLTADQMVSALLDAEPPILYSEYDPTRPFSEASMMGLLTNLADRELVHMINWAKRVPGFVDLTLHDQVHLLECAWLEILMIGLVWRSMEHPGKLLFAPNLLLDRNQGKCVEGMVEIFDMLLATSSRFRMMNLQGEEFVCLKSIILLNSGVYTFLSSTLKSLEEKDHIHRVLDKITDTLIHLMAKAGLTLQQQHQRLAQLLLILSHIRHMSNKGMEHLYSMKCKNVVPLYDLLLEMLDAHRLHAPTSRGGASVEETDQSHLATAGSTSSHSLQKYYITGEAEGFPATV

[7] = test system: human androgen receptor (hAR); assay: Androgen receptor transcriptional activation and inhibition assays; format: cell-based
female Wistar rats = assay: Toxicity / median lethal dose test, OECD guidelines 425; format: in vivo
[8] = Pharmacokinetics and detection in blood by LC-MS; format: in vivo, mice; conditions: mice
[9] = test system: S typhimurium tester strains TA98, TA100, TA1535, and TA1537 and E coli tester strain WP2uvrA(pKM101); conditions: all doses with and without S9
[10] = short treatment in the presence of S9 mix, 5 μg/mL (Table 11)
[11] = short treatment in the presence of S9 mix, 10 μg/mL (Table 12)
[12] = short treatment in the presence of S9 mix, 5 μg/mL (Table 4)
[13] = short treatment in the presence of S9 mix, 10 μg/mL (Table 7)
[14] = rats, single oral 2000 mg/kg, means ± SEM (n = 5)
[15] = short treatment in the absence of S9 mix, 2.5 mmol/L
[16] = short treatment in the absence of S9 mix, 5 mmol/L
[17] = short treatment in the absence of S9 mix, 10 mmol/L
[18] = short treatment in the presence of S9 mix, 2.5 mmol/L
[19] = short treatment in the presence of S9 mix, 5 mmol/L
[20] = short treatment in the presence of S9 mix, 10 mmol/L
[21] = extended treatment in the absence of S9 mix
[22] = short treatment in the absence of S9 mix
[23] = short treatment in the presence of S9 mix
[24] = extended treatment in the absence of S9 mix, 2.5 mmol/L
[25] = extended treatment in the absence of S9 mix, 5 mmol/L
[26] = extended treatment in the absence of S9 mix, 10 mmol/L
[27] = extended treatment in the absence of S9 mix, 0.0025 μg/mL (Table 13)
[28] = extended treatment in the absence of S9 mix, 0.025 μg/mL (Table 14)
[29] = extended treatment in the absence of S9 mix, 0.0025 μg/mL (Table 5)
[30] = extended treatment in the absence of S9 mix, 0.025 μg/mL (Table 8)

SMILES: O=P1(N(CCCl)CCCl)NCCCO1 (stereo not drawn) [Cyclophosphamide, reference compound]
- MNBN cells frequency (%) (HepG2 cells [1]; [10]): 2.3% and 3.1%
- Mean frequency (%) of MNBN cells (HepG2 cells [1]; [10]): 2.70%
- MNBN cells frequency (%) (HepG2 cells [1]; [11]): 8.2% and 7.9%
- Mean frequency (%) of MNBN cells (HepG2 cells [1]; [11]): 8.05%
- cytotoxicity at 5 μg/mL (Cytotoxicity evaluation; [12]): 13%
- cytotoxicity at 10 μg/mL (Cytotoxicity evaluation; [13]): 5.3%
- CBPI (HepG2 cells [2]; [12]): 1.73 and 1.66
- Mean CBPI (HepG2 cells [2]; [12]): 1.70
- CBPI (HepG2 cells [2]; [13]): 1.93 and 2.09
- Mean CBPI (HepG2 cells [2]; [13]): 2.01

SMILES: CCCCC/C=C\C/C=C\CCCCCCCC(=O)OCC1(C)COC1 [NKS-5, (9Z,12Z)-(3-methyloxetan-3-yl)methyl octadeca-9,12-dienoate]
- Ca2+ signaling compared with a dietary long-chain fatty acid (human fungiform TBC): higher
- increase in intracellular free Ca2+ concentrations, [Ca2+]i (human fungiform TBC; NKS-3 50 μmol/L, NKS-5 25 μmol/L): induced an increase
- Ca2+ signaling compared with a dietary long-chain fatty acid (mouse fungiform TBC): higher
- CT nerve responses compared with dietary LCFAs (LA, OA) [3]: higher
- release of cholecystokinin (CCK) into blood (C57Bl/6 male mice [4]): more efficient than NKS-3 and LA
- release of peptide YY (PYY) into blood (C57Bl/6 male mice [4]): more potent than NKS-3 and LA
- preference in 2-bottle paradigm versus control solution (C57Bl/6 male mice [5]): significant preference
- CD36 (reduced) and GPR120 (high) protein expression in TBC, Western blots (C57BL/6J male mice; HFD animals, FTA intake 16 weeks): reversed this trend
- LA-induced decreases in [Ca2+]i in TBC from obese mice (C57BL/6J male mice; HFD mice given FTA 16 weeks): reversed
- size of hepatocytes (C57BL/6J male mice; HFD-fed mice): decreased
- fecal microbiota: bacterial family increased (C57BL/6J male mice; HFD-fed mice, 16S rRNA sequencing, week 26): Bacteroidaceae
- adipose tissue mRNA encoding leptin, CD36, TNF-α, and IL6 (C57BL/6J male mice; HFD-fed mice, epididymal adipose tissue): down-regulated
- crown-like structures of adipocytes (C57BL/6J male mice; obese animals, histology): decreased
- circulating TNF-α levels (C57BL/6J male mice; obese mice): failed to decrease significantly
- release of GLP-1, CCK-1, and PYY into blood circulation (C57BL/6J male mice; obese mice, end of week 26): induced the release
- estrogenic or antiestrogenic potential (conclusion) [6]: did not exert an estrogenic or antiestrogenic potential
- androgenic or antiandrogenic property (conclusion) [7]: did not possess androgenic or antiandrogenic property
- weight of kidneys (female Wistar rats; [14]): 1.84 ± 0.112 g
- weight of liver (female Wistar rats; [14]): 8.03 ± 0.136 g
- weight of spleen (female Wistar rats; [14]): 0.90 ± 0.062 g
- toxic effect on liver enzymes and blood lipid parameters (female Wistar rats; rats, single oral limit dose 2000 mg/kg body weight, 2 weeks): No toxic effect
- evidence of toxicity, preliminary study (female Wistar rats; single animal, oral dosages of 5000 mg/kg body weight): no evidence of toxicity
- detection in blood circulation after intravenous injections (LC-MS) [8]: below the level of detection
- MNBN cells frequency (%) (HepG2 cells [1]; [15]): 1.1% and 0.8%
- Mean frequency (%) of MNBN cells (HepG2 cells [1]; [15]): 0.95%
- MNBN cells frequency (%) (HepG2 cells [1]; [16]): 1.1% and 1.3%
- Mean frequency (%) of MNBN cells (HepG2 cells [1]; [16]): 1.20%
- MNBN cells frequency (%) (HepG2 cells [1]; [17]): 0.9% and 0.8%
- Mean frequency (%) of MNBN cells (HepG2 cells [1]; [17]): 0.85%
- MNBN cells frequency (%) (HepG2 cells [1]; [18]): 1.0% and 1.1%
- Mean frequency (%) of MNBN cells (HepG2 cells [1]; [18]): 1.05%
- MNBN cells frequency (%) (HepG2 cells [1]; [19]): 0.9%
- Mean frequency (%) of MNBN cells (HepG2 cells [1]; [19]): 0.90%
- MNBN cells frequency (%) (HepG2 cells [1]; [20]): 0.9% and 0.8%
- Mean frequency (%) of MNBN cells (HepG2 cells [1]; [20]): 0.85%
- cytotoxicity at 2.5 mmol/L (Cytotoxicity evaluation; [21]): 5.29%
- cytotoxicity at 5 mmol/L (Cytotoxicity evaluation; [21]): 19.6%
- cytotoxicity at 10 mmol/L (Cytotoxicity evaluation; [21]): 14.7%
- cytotoxicity at 2.5 mmol/L (Cytotoxicity evaluation; [22]): -5.78%
- cytotoxicity at 5 mmol/L (Cytotoxicity evaluation; [22]): -1.42%
- cytotoxicity at 10 mmol/L (Cytotoxicity evaluation; [22]): 1.32%
- cytotoxicity at 2.5 mmol/L (Cytotoxicity evaluation; [23]): -0.59%
- cytotoxicity at 5 mmol/L (Cytotoxicity evaluation; [23]): -6.22%
- cytotoxicity at 10 mmol/L (Cytotoxicity evaluation; [23]): 1.64%
- CBPI (HepG2 cells [2]; [24]): 2.02 and 1.97
- Mean CBPI (HepG2 cells [2]; [24]): 1.99
- CBPI (HepG2 cells [2]; [25]): 1.83 and 1.85
- Mean CBPI (HepG2 cells [2]; [25]): 1.84
- CBPI (HepG2 cells [2]; [26]): 1.95 and 1.84
- Mean CBPI (HepG2 cells [2]; [26]): 1.89
- CBPI (HepG2 cells [2]; [15]): 1.99 and 1.98
- Mean CBPI (HepG2 cells [2]; [15]): 1.98
- CBPI (HepG2 cells [2]; [16]): 1.95 and 1.94
- Mean CBPI (HepG2 cells [2]; [16]): 1.94
- CBPI (HepG2 cells [2]; [17]): 1.91 and 1.93
- Mean CBPI (HepG2 cells [2]; [17]): 1.92
- CBPI (HepG2 cells [2]; [18]): 2.07
- Mean CBPI (HepG2 cells [2]; [18]): 2.07
- CBPI (HepG2 cells [2]; [19]): 2.14 and 2.12
- Mean CBPI (HepG2 cells [2]; [19]): 2.13
- CBPI (HepG2 cells [2]; [20]): 2.06 and 2.04
- Mean CBPI (HepG2 cells [2]; [20]): 2.05
- toxicity in the tester strains [9]: No toxicity

SMILES: CC[C@]1(O)C[C@@H]2CN(CCc3c([nH]c4ccccc34)[C@@](C(=O)OC)(c3cc4c(cc3OC)N(C)[C@H]3[C@@](O)(C(=O)OC)[C@H](OC(C)=O)[C@]5(CC)C=CCN6CC[C@]43[C@@H]65)C2)C1 [Vinblastine, reference compound]
- MNBN cells frequency (%) (HepG2 cells [1]; [27]): 11.5% and 12.3%
- Mean frequency (%) of MNBN cells (HepG2 cells [1]; [27]): 11.9%
- MNBN cells frequency (%) (HepG2 cells [1]; [28]): 4.6% and 4.1%
- Mean frequency (%) of MNBN cells (HepG2 cells [1]; [28]): 4.35%
- cytotoxicity at 0.0025 μg/mL (Cytotoxicity evaluation; [29]): 27.1%
- cytotoxicity at 0.025 μg/mL (Cytotoxicity evaluation; [30]): 9.29%
- CBPI (HepG2 cells [2]; [29]): 1.67
- Mean CBPI (HepG2 cells [2]; [29]): 1.67
- CBPI (HepG2 cells [2]; [30]): 1.97 and 1.92
- Mean CBPI (HepG2 cells [2]; [30]): 1.95

SMILES: CCCCC/C=C\C/C=C\CCCCCCCC(=O)O [LA, linoleic acid, reference compound]
- release of cholecystokinin (CCK) into blood (C57Bl/6 male mice [4]): better inducer than NKS-3
